Patent publication US10167262B2, “Herbicidal substituted 3-arylpyrazoles” (FMC CORPORATION, priority 2014, dated 2019)
Like-named read-outs stand apart in the source and are kept apart here.

Key:
Assay type in all cases: in vivo
[1] = system: blackgrass (Alopecurus myosuroides); experiment: Test C pre-/postemergence greenhouse test, plant response rating 0-100; conditions: Alopecurus myosuroides; for pest or weed control at 62 g/ha: 62 g ai/ha; for pest or weed control at 125 g/ha: 125 g ai/ha; for pest or weed control at 250 g/ha: 250 g ai/ha;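 on all read-outs here: 0 is no effect and 100 is complete control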
Outline: (§1)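 Plants were scored visually against controls 13–15 days after treatment on a 0–100 scale, 100 meaning complete control. Test chemicals, formulated in surfactant-containing non-phytotoxic solvent, went preemergence onto seeds in loam–sand blend or postemergence onto 1- to 4-leaf plants (2–18 cm) grown in peat-based mix.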

corn (Zea mays) = experiment: as above; conditions: Zea mays; for Corn plant response rating (crop injury, 0 = no effect, 100 = complete kill) at 250 g/ha: 250 g ai/ha
Outline: as §1

[2] = system: giant foxtail (Setaria faberii); experiment: as above; conditions: Setaria faberi; for pest or weed control at 62 g/ha: 62 g ai/ha; for pest or weed control at 125 g/ha: 125 g ai/ha; for pest or weed control at 250 g/ha: 250 g ai/ha
Outline: as §1

[3] = system: johnsongrass (Sorghum halepense); experiment: as above; conditions: Sorghum halepense; for pest or weed control at 62 g/ha: 62 g ai/ha; for pest or weed control at 125 g/ha: 125 g ai/ha; for pest or weed control at 250 g/ha: 250 g ai/ha
Outline: as §1

[4] = system: lambsquarters (Chenopodium album); experiment: as above; conditions: Chenopodium album; for pest or weed control at 62 g/ha: 62 g ai/ha; for pest or weed control at 125 g/ha: 125 g ai/ha; for pest or weed control at 250 g/ha: 250 g ai/ha
Outline: as §1

[5] = system: morningglory (Ipomoea coccinea); experiment: as above; conditions: Ipomoea; for pest or weed control at 62 g/ha: 62 g ai/ha; for pest or weed control at 125 g/ha: 125 g ai/ha; for pest or weed control at 250 g/ha: 250 g ai/ha
Outline: as §1

[6] = system: pigweed (Amaranthus retroflexus); experiment: as above; conditions: Amaranthus retroflexus; for pest or weed control at 62 g/ha: 62 g ai/ha; for pest or weed control at 125 g/ha: 125 g ai/ha; for pest or weed control at 250 g/ha: 250 g ai/ha
Outline: as §1

soybean (Glycine max) = experiment: as above; conditions: Glycine max; for plant injury at 62 g/ha: 62 g ai/ha; for plant injury at 125 g/ha: 125 g ai/ha; for plant injury at 250 g/ha: 250 g ai/ha
Outline: as §1

[7] = system: velvetleaf (Abutilon theophrasti); experiment: as above; conditions: Abutilon theophrasti; for pest or weed control at 62 g/ha: 62 g ai/ha; for pest or weed control at 125 g/ha: 125 g ai/ha; for pest or weed control at 250 g/ha: 250 g ai/ha
Outline: as §1

[8] = system: winter wheat (Triticum aestivum); experiment: as above; conditions: Triticum aestivum; for plant injury at 62 g/ha: 62 g ai/ha; for plant injury at 125 g/ha: 125 g ai/ha; for plant injury at 250 g/ha: 250 g ai/ha
Outline: as §1

[9] = system: chickweed (common chickweed, Stellaria media); experiment: Test C postemergence greenhouse test, plant response rating 0-100; conditions: Stellaria media, post-emergence
Outline: (§2)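 Formulated compounds applied postemergence; plants 1- to 4-leaf stage. Evaluated visually vs. untreated controls after roughly two weeks (13–15 d) under greenhouse conditions; 100 denotes complete control.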

kochia (Kochia scoparia) = experiment: as above; conditions: Bassia scoparia, post-emergence
Outline: as §2

wild oat (Avena fatua) = experiment: as above; conditions: Avena fatua, post-emergence
Outline: as §2

[10] = post-emergence, Postemergence, scale 0 to 100
[11] = post-emergence, Postemergence, 500 g ai/ha, scale 0 to 100
[12] = pre-emergence, Preemergence, read-out: Plant response rating, Blackgrass
[13] = pre-emergence, Preemergence, 31 g ai/ha
[14] = post-emergence, Postemergence, read-out: Plant response rating (0 to 100), Foxtail, Giant
[15] = pre-emergence, Preemergence, read-out: Plant response rating, Foxtail, Giant
[16] = post-emergence, Postemergence, read-out: Plant response rating (0 to 100), Johnsongrass
[17] = pre-emergence, Preemergence, read-out: Plant response rating, Johnsongrass
[18] = post-emergence, Postemergence, read-out: Plant response rating (0 to 100), Lambsquarters
[19] = pre-emergence, Preemergence, read-out: Plant response rating, Lambsquarters
[20] = post-emergence, Postemergence, read-out: Plant response rating (0 to 100), Morningglory
[21] = pre-emergence, Preemergence, read-out: Plant response rating, Morningglory
[22] = post-emergence, Postemergence, read-out: Plant response rating (0 to 100), Pigweed
[23] = pre-emergence, Preemergence, read-out: Plant response rating, Pigweed
[24] = post-emergence, Postemergence, read-out: Plant response rating (0 to 100), Soybean
[25] = pre-emergence, Preemergence, read-out: Plant response rating, Soybean
[26] = post-emergence, Postemergence, read-out: Plant response rating (0 to 100), Velvetleaf
[27] = pre-emergence, Preemergence, read-out: Plant response rating, Velvetleaf
[28] = post-emergence, Postemergence, read-out: Plant response rating (0 to 100), Wheat
[29] = pre-emergence, Preemergence, read-out: Plant response rating, Wheat

Structure (SMILES): O=C(c1ccccc1)c1cn(CO)nc1-c1cc(Cl)cc(Cl)c1 [Compound 15, [3-(3,5-dichlorophenyl)-1-(hydroxymethyl)-1H-pyrazol-4-yl]phenylmethanone]
- pest or weed control at 62 g/ha ([1]; post-emergence, Postemergence, read-out: Plant response rating (0 to 100), Blackgrass): 0%
- pest or weed control at 125 g/ha ([1]; post-emergence, Postemergence, scale 0 to 100, read-out: Plant response rating, Blackgrass): 0%
- pest or weed control at 250 g/ha [1, 10]: 0%
- pest or weed control at 500 g/ha [1, 11]: 0%
- pest or weed control at 31 g/ha ([1]; pre-emergence, Preemergence, 31 g ai/ha, read-out: Plant response rating, Blackgrass): 0%
- pest or weed control at 62 g/ha [1, 12]: 0%
- pest or weed control at 125 g/ha [1, 12]: 0%
- pest or weed control at 250 g/ha ([1]; pre-emergence, Preemergence): 0%
- plant injury at 62 g/ha (corn (Zea mays); post-emergence, Postemergence, 62 g ai/ha): 0%
- plant injury at 125 g/ha (corn (Zea mays); post-emergence, Postemergence, 125 g ai/ha): 0%
- Corn plant response rating (crop injury, 0 = no effect, 100 = complete kill) at 250 g/ha (corn (Zea mays); [10]): 0%
- Corn plant response rating (crop injury, 0 = no effect, 100 = complete kill) at 500 g/ha (corn (Zea mays); [11]): 0%
- Corn plant response rating (crop injury, 0 = no effect, 100 = complete kill) at 31 g/ha (corn (Zea mays); [13]): 0%
- Corn plant response rating (crop injury, 0 = no effect, 100 = complete kill) at 62 g/ha (corn (Zea mays); pre-emergence, Preemergence, 62 g ai/ha): 0%
- Corn plant response rating (crop injury, 0 = no effect, 100 = complete kill) at 125 g/ha (corn (Zea mays); pre-emergence, Preemergence, 125 g ai/ha): 0%
- Corn plant response rating (crop injury, 0 = no effect, 100 = complete kill) at 250 g/ha (corn (Zea mays); pre-emergence, Preemergence): 0%
- pest or weed control at 62 g/ha [2, 14]: 0%
- pest or weed control at 125 g/ha [2, 14]: 0%
- pest or weed control at 250 g/ha [2, 10]: 0%
- pest or weed control at 500 g/ha [2, 11]: 10%
- pest or weed control at 31 g/ha ([2]; pre-emergence, Preemergence, 31 g ai/ha, read-out: Plant response rating, Foxtail, Giant): 0%
- pest or weed control at 62 g/ha [2, 15]: 0%
- pest or weed control at 125 g/ha [2, 15]: 0%
- pest or weed control at 250 g/ha ([2]; pre-emergence, Preemergence): 0%
- pest or weed control at 62 g/ha [3, 16]: 0%
- pest or weed control at 125 g/ha [3, 16]: 0%
- pest or weed control at 250 g/ha [3, 10]: 0%
- pest or weed control at 500 g/ha [3, 11]: 0%
- pest or weed control at 31 g/ha [3, 13]: 0%
- pest or weed control at 62 g/ha [3, 17]: 0%
- pest or weed control at 125 g/ha [3, 17]: 0%
- pest or weed control at 250 g/ha ([3]; pre-emergence, Preemergence): 0%
- pest or weed control at 62 g/ha [4, 18]: 75%
- pest or weed control at 125 g/ha [4, 18]: 80%
- pest or weed control at 250 g/ha [4, 10]: 80%
- pest or weed control at 500 g/ha [4, 11]: 90%
- pest or weed control at 31 g/ha [4, 13]: 100%
- pest or weed control at 62 g/ha [4, 19]: 100%
- pest or weed control at 125 g/ha [4, 19]: 100%
- pest or weed control at 250 g/ha ([4]; pre-emergence, Preemergence): 100%
- pest or weed control at 62 g/ha [5, 20]: 0%
- pest or weed control at 125 g/ha [5, 20]: 0%
- pest or weed control at 250 g/ha [5, 10]: 10%
- pest or weed control at 500 g/ha [5, 11]: 20%
- pest or weed control at 31 g/ha [5, 13]: 0%
- pest or weed control at 62 g/ha [5, 21]: 0%
- pest or weed control at 125 g/ha [5, 21]: 0%
- pest or weed control at 250 g/ha ([5]; pre-emergence, Preemergence): 0%
- pest or weed control at 62 g/ha [6, 22]: 90%
- pest or weed control at 125 g/ha [6, 22]: 100%
- pest or weed control at 250 g/ha [6, 10]: 100%
- pest or weed control at 500 g/ha [6, 11]: 100%
- pest or weed control at 31 g/ha [6, 13]: 100%
- pest or weed control at 62 g/ha [6, 23]: 100%
- pest or weed control at 125 g/ha [6, 23]: 100%
- pest or weed control at 250 g/ha ([6]; pre-emergence, Preemergence): 100%
- plant injury at 62 g/ha (soybean (Glycine max); [24]): 0%
- plant injury at 125 g/ha (soybean (Glycine max); [24]): 0%
- plant injury at 250 g/ha (soybean (Glycine max); [10]): 0%
- plant injury at 500 g/ha (soybean (Glycine max); [11]): 5%
- plant injury at 62 g/ha (soybean (Glycine max); [25]): 0%
- plant injury at 125 g/ha (soybean (Glycine max); [25]): 0%
- plant injury at 250 g/ha (soybean (Glycine max); pre-emergence, Preemergence): 0%
- pest or weed control at 62 g/ha [7, 26]: 80%
- pest or weed control at 125 g/ha [7, 26]: 80%
- pest or weed control at 250 g/ha [7, 10]: 90%
- pest or weed control at 500 g/ha [7, 11]: 90%
- pest or weed control at 62 g/ha [7, 27]: 60%
- pest or weed control at 125 g/ha [7, 27]: 100%
- pest or weed control at 250 g/ha ([7]; pre-emergence, Preemergence): 100%
- plant injury at 62 g/ha [8, 28]: 0%
- plant injury at 125 g/ha [8, 28]: 0%
- plant injury at 250 g/ha [8, 10]: 0%
- plant injury at 500 g/ha [8, 11]: 0%
- plant injury at 62 g/ha [8, 29]: 0%
- plant injury at 125 g/ha [8, 29]: 0%
- plant injury at 250 g/ha ([8]; pre-emergence, Preemergence): 0%
- pest or weed control at 62 g/ha ([9]; 62 g ai/ha): 95%
- pest or weed control at 125 g/ha ([9]; 125 g ai/ha): 95%
- pest or weed control at 250 g/ha ([9]; 250 g ai/ha, scale 0 to 100): 100%
- pest or weed control at 500 g/ha ([9]; 500 g ai/ha, scale 0 to 100): 100%
- pest or weed control at 62 g/ha (kochia (Kochia scoparia); 62 g ai/ha): 70%
- pest or weed control at 125 g/ha (kochia (Kochia scoparia); 125 g ai/ha): 85%
- pest or weed control at 250 g/ha (kochia (Kochia scoparia); 250 g ai/ha, scale 0 to 100): 85%
- pest or weed control at 500 g/ha (kochia (Kochia scoparia); 500 g ai/ha, scale 0 to 100): 90%
- pest or weed control at 62 g/ha (wild oat (Avena fatua); 62 g ai/ha): 0%
- pest or weed control at 125 g/ha (wild oat (Avena fatua); 125 g ai/ha): 0%
- pest or weed control at 250 g/ha (wild oat (Avena fatua); 250 g ai/ha, scale 0 to 100): 0%
- pest or weed control at 500 g/ha (wild oat (Avena fatua); 500 g ai/ha, scale 0 to 100): 0%
